Data as given in patent US20100298141A1, “SUBSTITUTED PYRIDINE N-OXIDE HERBICIDES” (E. I. DU PONT DE NEMOURS AND COMPANY, priority 2007, published 2010).

Tests used:
green foxtail = assay: Test C pre-/postemergence test; format: in vivo, Setaria viridis; conditions: for Plant response rating, Foxtail, Green: 31 g ai/ha, scale 0 to 100 (0 no effect, 100 complete control)
Outline: (§1)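 Seeds were planted and treated preemergence with test chemical in a non-phytotoxic solvent mixture containing surfactant. Postemergence applications of the same formulation went onto plants 2 to 18 cm tall (1- to 4-leaf stage). A dash marks no test result.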

johnsongrass = assay: Test C pre-/postemergence test; format: in vivo, Sorghum halepense; conditions: for Plant response rating, Johnsongrass: 31 g ai/ha, scale 0 to 100 (0 no effect, 100 complete control)
Outline: as §1

barnyardgrass = assay: Test C flooded paddy test; format: in vivo, Echinochloa crus-galli; conditions: Flood
Outline: (§2)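 In-water treatment: compound dosed into 3 cm flood over soil, water level unchanged throughout. Controls run alongside; visual assessment at day 13–15.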

cocklebur = assay: Test C pre-/postemergence test; format: in vivo, Xanthium strumarium; conditions: for Plant response rating, Cocklebur: 31 g ai/ha, scale 0 to 100 (0 no effect, 100 complete control)
Outline: as §1

soybean = assay: Test C pre-/postemergence test; format: in vivo, Glycine max
Outline: as §1

velvetleaf [1] = assay: Test C pre-/postemergence test; format: in vivo, Abutilon theophrasti; conditions: for Plant response rating, Velvetleaf: 31 g ai/ha, scale 0 to 100 (0 no effect, 100 complete control)
Outline: as §1

downy brome = assay: Test C pre-/postemergence test; format: in vivo, Bromus tectorum; conditions: for Plant response rating, Bromegrass, Downy: 31 g ai/ha, scale 0 to 100 (0 no effect, 100 complete control)
Outline: as §1

Italian ryegrass = assay: Test C pre-/postemergence test; format: in vivo, Lolium multiflorum
Outline: as §1

wild oat = assay: Test C pre-/postemergence test; format: in vivo, Avena fatua; conditions: for Plant response rating, Oat, Wild: 31 g ai/ha, scale 0 to 100 (0 no effect, 100 complete control)
Outline: as §1

morningglory = assay: Test C pre-/postemergence test; format: in vivo, Ipomoea coccinea; conditions: for Plant response rating, Morningglory: 31 g ai/ha, scale 0 to 100 (0 no effect, 100 complete control)
Outline: as §1

duck salad = assay: Test C flooded paddy test; format: in vivo, Heteranthera limosa; conditions: Flood
Outline: as §2

giant foxtail = assay: Test C pre-/postemergence test; format: in vivo, Setaria faberii; conditions: for Plant response rating, Foxtail, Giant: 31 g ai/ha, scale 0 to 100 (0 no effect, 100 complete control)
Outline: as §1

catchweed bedstraw = assay: Test C pre-/postemergence test; format: in vivo, Galium aparine; conditions: for Plant response rating, Galium: 31 g ai/ha, scale 0 to 100 (0 no effect, 100 complete control)
Outline: as §1

woolly cupgrass = assay: Test C pre-/postemergence test; format: in vivo, Eriochloa villosa; conditions: for Plant response rating, Cupgrass, Woolly: 31 g ai/ha, scale 0 to 100 (0 no effect, 100 complete control)
Outline: as §1

corn = assay: Test C pre-/postemergence test; format: in vivo, Zea mays; conditions: for Plant response rating, Corn: 31 g ai/ha, scale 0 to 100 (0 no effect, 100 complete control)
Outline: as §1

velvetleaf [2] = assay: Test A pre-/postemergence greenhouse test; format: in vivo, Abutilon theophrasti; conditions: for Velvetleaf plant response rating: 0 to 100 scale; for Plant response rating, Velvetleaf: 0 to 100 scale where 0 is no effect and 100 is complete control
Outline: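 Greenhouse herbicide screen, pre- and postemergence in parallel. Soil: loam plus sand. Formulation: non-phytotoxic solvent mix with surfactant. Postemergence stage: one to two leaves, 2–10 cm height. Evaluation: visual injury, compared with untreated controls, about 10 days after treatment.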

blackgrass = assay: Test C pre-/postemergence test; format: in vivo, Alopecurus myosuroides; conditions: for Plant response rating, Blackgrass: 31 g ai/ha, scale 0 to 100 (0 no effect, 100 complete control)
Outline: as §1

[3] = 62 g ai/ha, Preemergence, scale 0 to 100
[4] = 125 g ai/ha, preemergence, scale 0 (no effect) to 100 (complete control)
[5] = preemergence, 250 g ai/ha, scale 0 (no effect) to 100 (complete control)
[6] = 31 g ai/ha, scale 0 to 100 (0 no effect, 100 complete control)
[7] = 62 g ai/ha, scale 0 to 100, 0 no effect, 100 complete control, 13 to 15 days
[8] = 125 g ai/ha, scale 0 to 100, 0 no effect, 100 complete control, 13 to 15 days
[9] = 250 g ai/ha, scale 0 to 100, 0 no effect, 100 complete control, 13 to 15 days
[10] = Preemergence, 31 g ai/ha, scale 0 to 100 (0 no effect, 100 complete control)
[11] = Postemergence, 125 g ai/ha, 0 is no effect, 100 is complete control
[12] = Postemergence, 500 g ai/ha, 0 is no effect, 100 is complete control
[13] = Preemergence, 125 g ai/ha, 0 no effect, 100 complete control
[14] = preemergence, 125 g ai/ha, scale 0 (no effect) to 100 (complete control)

Cn1nc(C(F)(F)F)c(C[S+]([O-])c2cc(F)cc[n+]2[O-])c1Cl (racemic) [Compound 42]
45: Bromegrass, Downy plant response rating (downy brome; [4])
35: Plant response rating, Cupgrass, Woolly (woolly cupgrass; Preemergence)
50: Cocklebur plant response rating (cocklebur; [5]) | Oat, Wild plant response rating (wild oat; [4]) | Morningglory plant response rating (morningglory; [3]) | Morningglory plant response rating (morningglory; [4]) | Galium plant response rating (catchweed bedstraw; [3])
40: Plant response rating, Barnyardgrass (barnyardgrass; [8]) | Soybean plant response rating (soybean; [4]) | Soybean plant response rating (soybean; [5])
70: Velvetleaf plant response rating (velvetleaf [1]; [4]) | Bromegrass, Downy plant response rating (downy brome; [5]) | Plant response rating, Ducksalad (duck salad; [6]) | Blackgrass plant response rating (blackgrass; [3]) | Plant response rating, Blackgrass (blackgrass; Preemergence)
0: Plant response rating, Barnyardgrass (barnyardgrass; [6]) | Plant response rating, Barnyardgrass (barnyardgrass; [7]) | Cocklebur plant response rating (cocklebur; [3]) | Cocklebur plant response rating (cocklebur; [4]) | Plant response rating, Cocklebur (cocklebur; Preemergence) | Soybean plant response rating (soybean; [3]) | Plant response rating, Soybean (soybean; [10]) | Plant response rating, Velvetleaf (velvetleaf [1]; Preemergence) | Plant response rating, Oat, Wild (wild oat; Preemergence) | Plant response rating, Morningglory (morningglory; Preemergence) | Plant response rating, Galium (catchweed bedstraw; Preemergence) | Plant response rating, Corn (corn; Preemergence) | Velvetleaf plant response rating (velvetleaf [2]; [11])
5: Oat, Wild plant response rating (wild oat; [3])
25: Corn plant response rating (corn; [3])
10: Plant response rating, Bromegrass, Downy (downy brome; Preemergence) | Velvetleaf plant response rating (velvetleaf [2]; [13])
55: Plant response rating, Johnsongrass (johnsongrass; Preemergence) | Plant response rating, Barnyardgrass (barnyardgrass; [9]) | Ryegrass, Italian plant response rating (Italian ryegrass; [3]) | Cupgrass, Woolly plant response rating (woolly cupgrass; [3])
100: Foxtail, Green plant response rating (green foxtail; [3]) | Foxtail, Green plant response rating (green foxtail; [4]) | Foxtail, Green plant response rating (green foxtail; [5]) | Johnsongrass plant response rating (johnsongrass; [4]) | Johnsongrass plant response rating (johnsongrass; [5]) | Velvetleaf plant response rating (velvetleaf [1]; [5]) | Foxtail, Giant plant response rating (giant foxtail; [3]) | Foxtail, Giant plant response rating (giant foxtail; [4]) | Foxtail, Giant plant response rating (giant foxtail; [5]) | Galium plant response rating (catchweed bedstraw; [4]) | Galium plant response rating (catchweed bedstraw; [5])
80: Ryegrass, Italian plant response rating (Italian ryegrass; [4]) | Corn plant response rating (corn; [5]) | Plant response rating, Velvetleaf (velvetleaf [2]; Preemergence, 500 g ai/ha)
85: Ryegrass, Italian plant response rating (Italian ryegrass; [5]) | Plant response rating, Ducksalad (duck salad; [7]) | Plant response rating, Ducksalad (duck salad; [8]) | Cupgrass, Woolly plant response rating (woolly cupgrass; [4])
90: Oat, Wild plant response rating (wild oat; [5]) | Morningglory plant response rating (morningglory; [5]) | Plant response rating, Ducksalad (duck salad; [9]) | Cupgrass, Woolly plant response rating (woolly cupgrass; [5])
15: Bromegrass, Downy plant response rating (downy brome; [3])
95: Blackgrass plant response rating (blackgrass; [4])
60: Velvetleaf plant response rating (velvetleaf [1]; [3]) | Corn plant response rating (corn; [4]) | Velvetleaf plant response rating (velvetleaf [2]; [12])
98: Plant response rating, Foxtail, Green (green foxtail; Preemergence) | Johnsongrass plant response rating (johnsongrass; [3]) | Plant response rating, Foxtail, Giant (giant foxtail; Preemergence) | Blackgrass plant response rating (blackgrass; [5])

CC(c1c(C(F)(F)F)nn(C)c1OCC(F)(F)F)S(=O)(=O)c1cccc[n+]1[O-] (racemic) [Compound 33]
50: Plant response rating, Oat, Wild (wild oat; Preemergence)
98: Plant response rating, Johnsongrass (johnsongrass; Preemergence) | Plant response rating (0 to 100), Bromegrass, Downy (downy brome; Preemergence, 250 g ai/ha) | Plant response rating, Foxtail, Giant (giant foxtail; Preemergence) | Cupgrass, Woolly plant response rating (woolly cupgrass; [3]) | Plant response rating (0 to 100), Corn (corn; Preemergence, 250 g ai/ha) | Corn plant response rating (corn; [14])
20: Bromegrass, Downy plant response rating (downy brome; [3])
95: Plant response rating, Ducksalad (duck salad; [9])
0: Cocklebur plant response rating (cocklebur; [3]) | Plant response rating, Cocklebur (cocklebur; Preemergence) | Plant response rating, Bromegrass, Downy (downy brome; Preemergence) | Plant response rating, Ducksalad (duck salad; [6]) | Plant response rating, Ducksalad (duck salad; [7])
100: Plant response rating (0 to 100), Foxtail, Green (green foxtail; Preemergence, 250 g ai/ha) | Johnsongrass plant response rating (johnsongrass; [3]) | Plant response rating (0 to 100), Johnsongrass (johnsongrass; Preemergence, 250 g ai/ha) | Velvetleaf plant response rating (velvetleaf [1]; [3]) | Plant response rating, Velvetleaf (velvetleaf [1]; Preemergence) | Morningglory plant response rating (morningglory; [3]) | Plant response rating, Morningglory (morningglory; Preemergence) | Foxtail, Giant plant response rating (giant foxtail; [3]) | Plant response rating (0 to 100), Foxtail, Giant (giant foxtail; Preemergence, 250 g ai/ha) | Galium plant response rating (catchweed bedstraw; [3]) | Plant response rating, Galium (catchweed bedstraw; Preemergence) | Plant response rating (0 to 100), Galium (catchweed bedstraw; Preemergence, 250 g ai/ha) | Plant response rating (0 to 100), Cupgrass, Woolly (woolly cupgrass; Preemergence, 250 g ai/ha) | Plant response rating, Velvetleaf (velvetleaf [2]; Preemergence, 500 g ai/ha) | Plant response rating (0 to 100), Blackgrass (blackgrass; Preemergence, 250 g ai/ha) | Blackgrass plant response rating (blackgrass; [14])
65: Oat, Wild plant response rating (wild oat; [3])
40: Cocklebur plant response rating (cocklebur; [14]) | Velvetleaf plant response rating (velvetleaf [2]; [11])
60: Soybean plant response rating (soybean; [3]) | Plant response rating, Corn (corn; Preemergence) | Velvetleaf plant response rating (velvetleaf [2]; [12])
45: Plant response rating (0 to 100), Cocklebur (cocklebur; Preemergence, 250 g ai/ha) | Plant response rating, Ducksalad (duck salad; [8])
80: Plant response rating, Barnyardgrass (barnyardgrass; [9]) | Ryegrass, Italian plant response rating (Italian ryegrass; [3]) | Plant response rating, Blackgrass (blackgrass; Preemergence)
30: Plant response rating, Barnyardgrass (barnyardgrass; [6]) | Plant response rating, Barnyardgrass (barnyardgrass; [7]) | Plant response rating, Barnyardgrass (barnyardgrass; [8])
75: Foxtail, Green plant response rating (green foxtail; [3]) | Plant response rating, Foxtail, Green (green foxtail; Preemergence)
70: Bromegrass, Downy plant response rating (downy brome; [14]) | Plant response rating, Ryegrass, Italian (Italian ryegrass; [10]) | Velvetleaf plant response rating (velvetleaf [2]; [13])
85: Plant response rating, Cupgrass, Woolly (woolly cupgrass; Preemergence) | Blackgrass plant response rating (blackgrass; [3])
90: Corn plant response rating (corn; [3])
